# Laboratory results: patent US7250434B2, “CCK-1 receptor modulators” (Janssen Pharmaceutica N.V., priority 2003, dated 2007)
# Target: T1, CCK-1 receptor (Homo sapiens, UniProt P32238)
# T1 construct: expressed in transfected cells; membranes
# T1 sequence (P32238 1-428): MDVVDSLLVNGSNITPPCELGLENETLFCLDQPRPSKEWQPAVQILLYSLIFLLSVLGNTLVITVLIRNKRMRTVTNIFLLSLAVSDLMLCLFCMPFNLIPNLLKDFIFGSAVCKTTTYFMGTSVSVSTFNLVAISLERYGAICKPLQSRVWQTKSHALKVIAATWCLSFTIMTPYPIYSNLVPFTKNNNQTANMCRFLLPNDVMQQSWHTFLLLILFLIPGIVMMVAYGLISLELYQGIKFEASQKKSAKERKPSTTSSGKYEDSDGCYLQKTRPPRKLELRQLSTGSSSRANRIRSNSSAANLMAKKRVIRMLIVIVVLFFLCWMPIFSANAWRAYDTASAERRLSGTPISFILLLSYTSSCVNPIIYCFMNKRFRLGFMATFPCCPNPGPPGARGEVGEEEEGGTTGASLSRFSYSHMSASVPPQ
# Test: [125I]-BH-CCK-8S competition binding to membranes of CHO-K1 cells stably transfected with the CCK-1 receptor
# Details: membranes of CCK-1 transfected CHO-K1 cells; 20 pM [125I]-BH-CCK-8S; 0.3 μM PD-134,308 present; 60 min at 21±3° C.; Cheng-Prusoff
# Protocol: CHO-K1 cells that had undergone stable transfection with the CCK-1 receptor were grown in DMEM supplemented with L-glutamine (2 mM), penicillin (50 units/mL) and streptomycin (50 μg/mL). Cells were cultured under continuous G418 selection (2 mM) and were harvested using a rubber cell scraper. CHO-K1 cells were sub-cultured a maximum of ten times before being reseeded from the original stocks.
# Membranes were prepared from the stably transfected CHO-K1 cells. Frozen cell pellets (−40° C.) were thawed in 14 mL of buffer A (10 mM HEPES, 130 mM NaCl, 4.7 mM KCl, 5 mM MgCl, 1 mM EGTA and 15.4 mg/100 mL bacitracin at pH 7.2), adapted from Harper et al. (Br. J. Pharmacol. 1996, 118:1717-1726). The thawed pellets were homogenized using a Polytron PT-10 (7×1 s). The homogenates were centrifuged for 5 min at 1500 rpm (600×g), and the resulting pellets were discarded. The supernatants were re-centrifuged in order to collect the receptor-membrane pellets (25 min 15,000 rpm; 39,800×g), which were re-suspended in buffer A.
# All assays were conducted in 96-well plates (GF/B millipore filter plates) using buffer A, with 0.3 μM PD-134,308, for the dilutions. The CCK-2 receptor ligand was included to eliminate the contribution of this receptor subtype to the binding. For the optimal cell number determination experiments 20 pM [^125I]-BH-CCK-8S (50 μL 60 pM solution) was incubated with a range of cell concentrations (2.5×105 to 12.5×10^5 cells/well) in a total volume of 150 μL. Total binding of [^125I]-BH-CCK-8S was determined in the presence of 15 μL of buffer A. Non-specific binding of [^125I]-BH-CCK-8S was determined in the presence of 15 μL of 100 μM 2-naphthalenesulphonyl L-aspartyl-(2-phenethyl)amide (2-NAP: see R. A. Hull et al. Br. J. Pharmacol. 1993, 108:734-740), a CCK-1 receptor selective antagonist that is structurally unrelated to the radioligand [^125I]-BH-CCK-8S. The assay preparation was incubated for 1 h at 21±3° C., and then the assay was terminated upon rapid filtration of the preparation under reduced pressure. The loaded filters were washed three times using undiluted PBS (100 μL), and then the residues were transferred to 5 mL scintillation tubes. Bound radioactivity was determined using a gamma counter (count time=1 min). From these experiments a cell concentration of 1 pellet in 40 mL of buffer (2.5×10^6 cells/mL) was chosen for use in other assays (below). To validate the radioligand concentration and incubation time for the assay, saturation and kinetic binding studies were also conducted (see M. F. Morton, The Pharmacological Characterization of Cholecystokinin Receptors in the Human Gastrointestinal Tract. PhD Thesis, University of London, 2000). The affinity of novel compounds was estimated by incubating membrane preparations with 15 μL of competing ligand (0.1 pM-1 mM) for 60 min at 21±3° C. The assay was then terminated according to the procedure outlined above.
# The pKi values were determined using the equation of Y.-C. Cheng and W. H. Prusoff (Biochem. Pharmacol. 1973, 22(23):3099-3108):
# [formula] To circumvent problems associated with computer-assisted data analysis of compounds with low affinity, the data obtained in the current study were weighted according to a method described by Morton (2000). In brief, 100% and 0% specific binding were defined independently using total binding and binding obtained in the presence of a high concentration of the reference antagonist, 2-NAP.
row,SMILES,Ki [nM]
1,"COc1ccc(-c2[nH]c(/C=C(\C(=O)O)c3cccc(Cl)c3)nc2-c2ccc(Cl)c(Cl)c2)cc1 [Example 8, (Z)-2-(3-Chloro-phenyl)-3-[4-(3,4-dichloro-phenyl)-5-(4-methoxy-phenyl)-1H-imidazol-2-yl]-acrylic acid]",5.01
2,"COc1ccc(-c2[nH]c(/C=C(\C(=O)O)c3cccc(C)c3)nc2-c2ccc(Cl)c(Cl)c2)cc1 [Example 9, (Z)-3-[4-(3,4-Dichloro-phenyl)-5-(4-methoxy-phenyl)-1H-imidazol-2-yl]-2-m-tolyl-acrylic acid]",7.94
3,"COc1ccc(-c2[nH]c(/C=C(\C(=O)O)c3cccc(C(F)(F)F)c3)nc2-c2ccc(Cl)c(Cl)c2)cc1 [Example 10, (Z)-3-[4-(3,4-Dichloro-phenyl)-5-(4-methoxy-phenyl)-1H-imidazol-2-yl]-2-(3-trifluoromethyl-phenyl)-acrylic acid]",10
4,"COc1ccc(-c2[nH]c(/C=C(\C(=O)O)c3ccc(C)cc3)nc2-c2ccc(Cl)c(Cl)c2)cc1 [Example 11, (Z)-3-[4-(3,4-Dichloro-phenyl)-5-(4-methoxy-phenyl)-1H-imidazol-2-yl]-2-p-tolyl-acrylic acid]",10
5,"O=C(O)/C(=C\c1nc(-c2ccccn2)c(-c2ccc3ccccc3c2)[nH]1)c1cccc(Cl)c1 [Example 12, (Z)-2-(3-Chloro-phenyl)-3-(5-naphthalen-2-yl-4-pyridin-2-yl-1H-imidazol-2-yl)-acrylic acid]",5.01
6,"COc1ccc(-c2[nH]c(/C=C(/C(=O)O)c3cccc4ccccc34)nc2-c2ccc(Cl)c(Cl)c2)cc1 [Example 13, (E)-3-[4-(3,4-Dichloro-phenyl)-5-(4-methoxy-phenyl)-1H-imidazol-2-yl]-2-naphthalen-1-yl-acrylic acid]",200
7,"COc1ccc(-c2[nH]c(/C=C(/C(=O)O)c3ccc(C)cc3)nc2-c2ccc(Cl)c(Cl)c2)cc1 [Example 14, (E)-3-[4-(3,4-Dichloro-phenyl)-5-(4-methoxy-phenyl)-1H-imidazol-2-yl]-2-p-tolyl-acrylic acid]",100
8,"COc1ccc(-c2[nH]c(/C=C(/C(=O)O)c3ccc(Cl)cc3)nc2-c2ccc(Cl)c(Cl)c2)cc1 [Example 15, (E)-2-(4-Chloro-phenyl)-3-[4-(3,4-dichloro-phenyl)-5-(4-methoxy-phenyl)-1H-imidazol-2-yl]-acrylic acid]",79.4
9,"COc1ccc(-c2[nH]c(/C=C(/C(=O)O)c3cccc(C(F)(F)F)c3)nc2-c2ccc(Cl)c(Cl)c2)cc1 [Example 16, (E)-3-[4-(3,4-Dichloro-phenyl)-5-(4-methoxy-phenyl)-1H-imidazol-2-yl]-2-(3-trifluoromethyl-phenyl)-acrylic acid]",79.4
10,"COc1ccc(-c2[nH]c(/C=C(/C(=O)O)c3cccc(C)c3)nc2-c2ccc(Cl)c(Cl)c2)cc1 [Example 17, (E)-3-[4-(3,4-Dichloro-phenyl)-5-(4-methoxy-phenyl)-1H-imidazol-2-yl]-2-m-tolyl-acrylic acid]",79.4
11,"COc1ccc(-c2[nH]c(/C=C(/C(=O)O)c3cccc(Cl)c3)nc2-c2ccc(Cl)c(Cl)c2)cc1 [Example 18, (E)-2-(3-Chloro-phenyl)-3-[4-(3,4-dichloro-phenyl)-5-(4-methoxy-phenyl)-1H-imidazol-2-yl]-acrylic acid]",63.1
12,"Cc1cccc(/C(=C\c2nc(-c3cc(Cl)ccc3Cl)c(-c3ccc4c(c3)OCO4)[nH]2)C(=O)O)c1 [Example 19, (E)-3-[5-Benzo[1,3]dioxol-5-yl-4-(2,5-dichloro-phenyl)-1H-imidazol-2-yl]-2-m-tolyl-acrylic acid]",15.8
13,"O=C(O)/C(=C/c1nc(-c2cc(Cl)ccc2Cl)c(-c2ccc3c(c2)OCO3)[nH]1)c1ccc(Cl)cc1 [Example 20, (E)-3-[5-Benzo[1,3]dioxol-5-yl-4-(2,5-dichloro-phenyl)-1H-imidazol-2-yl]-2-(4-chloro-phenyl)-acrylic acid]",15.8
14,"O=C(O)/C(=C/c1nc(-c2cc(Cl)ccc2Cl)c(-c2ccc3c(c2)OCO3)[nH]1)c1cccc(C(F)(F)F)c1 [Example 21, (E)-3-[5-Benzo[1,3]dioxol-5-yl-4-(2,5-dichloro-phenyl)-1H-imidazol-2-yl]-2-(3-trifluoromethyl-phenyl)-acrylic acid]",20
15,"Cc1ccc(/C(=C\c2nc(-c3cc(Cl)ccc3Cl)c(-c3ccc4c(c3)OCO4)[nH]2)C(=O)O)cc1 [Example 22, (E)-3-[5-Benzo[1,3]dioxol-5-yl-4-(2,5-dichloro-phenyl)-1H-imidazol-2-yl]-2-p-tolyl-acrylic acid]",25.1
16,"O=C(O)/C(=C/c1nc(-c2cc(Cl)ccc2Cl)c(-c2ccc3c(c2)OCO3)[nH]1)c1cccc2ccccc12 [Example 23, (E)-3-[5-Benzo[1,3]dioxol-5-yl-4-(2,5-dichloro-phenyl)-1H-imidazol-2-yl]-2-naphthalen-1-yl-acrylic acid]",79.4

# More lines, in order of falling Ki, values ahead:
row,Ki [nM],SMILES
1,5.01,"O=C(O)/C(=C\c1nc(-c2cc(Cl)ccc2Cl)c(-c2ccc3c(c2)OCO3)[nH]1)c1cccc(C(F)(F)F)c1 [Example 7, (Z)-3-[5-Benzo[1,3]dioxol-5-yl-4-(2,5-dichloro-phenyl)-1H-imidazol-2-yl]-2-(3-trifluoromethyl-phenyl)-acrylic acid]"
2,3.98,"Cc1ccc(/C(=C/c2nc(-c3cc(Cl)ccc3Cl)c(-c3ccc4c(c3)OCO4)[nH]2)C(=O)O)cc1 [Example 6, (Z)-3-[5-Benzo[1,3]dioxol-5-yl-4-(2,5-dichloro-phenyl)-1H-imidazol-2-yl]-2-p-tolyl-acrylic acid]"
3,3.16,"O=C(O)/C(=C/c1nc(-c2cc(Cl)ccc2Cl)c(-c2ccc3c(c2)OCO3)[nH]1)c1cccc(Cl)c1 [Example 2, (E)-3-[5-Benzo[1,3]dioxol-5-yl-4-(2,5-dichloro-phenyl)-1H-imidazol-2-yl]-2-(3-chloro-phenyl)-acrylic acid]"
4,3.16,"O=C(O)/C(=C\c1nc(-c2cc(Cl)ccc2Cl)c(-c2ccc3c(c2)OCO3)[nH]1)c1ccc(Cl)cc1 [Example 5, (Z)-3-[5-Benzo[1,3]dioxol-5-yl-4-(2,5-dichloro-phenyl)-1H-imidazol-2-yl]-2-(4-chloro-phenyl)-acrylic acid]"
5,2.51,"O=C(O)/C(=C\c1nc(-c2cc(Cl)ccc2Cl)c(-c2ccc3c(c2)OCO3)[nH]1)c1cccc2ccccc12 [Example 4, (Z)-3-[5-Benzo[1,3]dioxol-5-yl-4-(2,5-dichloro-phenyl)-1H-imidazol-2-yl]-2-naphthalen-1-yl-acrylic acid]"
6,2,"O=C(O)/C(=C\c1nc(-c2cc(Cl)ccc2Cl)c(-c2ccc3c(c2)OCO3)[nH]1)c1cccc(Cl)c1 [Example 1, (Z)-3-[5-Benzo[1,3]dioxol-5-yl-4-(2,5-dichloro-phenyl)-1H-imidazol-2-yl]-2-(3-chloro-phenyl)-acrylic acid]"
7,2,"Cc1cccc(/C(=C/c2nc(-c3cc(Cl)ccc3Cl)c(-c3ccc4c(c3)OCO4)[nH]2)C(=O)O)c1 [Example 3, (Z)-3-[5-Benzo[1,3]dioxol-5-yl-4-(2,5-dichloro-phenyl)-1H-imidazol-2-yl]-2-m-tolyl-acrylic acid]"
